Patent US20070212355A1 (priority 2005, published 2007)

What was measured:
CD1 mice = experiment: Mucosal wet weight of small intestine after 10 daily subcutaneous injections; format: in vivo; conditions: 2.5 mg/kg (13.3 nmole) daily s.c. 10 days; p<0.0001
Source text: Afterwards, the mice were euthanized and the small intestines were removed, flushed with saline, and processed as described below.
Specifically, 4 cm sections were harvested: (1) immediately distal to the pylorus (duodenum), (2) starting 2 cm distal of the ligament of Treitz (jejunum), and (3) immediately proximal to the cecum (ileum). The remaining small intestine from ˜6 cm distal of the ligament of Treitz to 4 cm proximal to the cecum was used to prepare mucosal scrapings. From the proximal and distal ends of the remnant, an equal distance was removed until a 15 cm section remained, the remnant was cut longitudinally, rinsed, and the mucosal layer was removed using the short end of a glass microscope slide. The wet weight of the intact intestinal segments and mucosa was measured.

[1] = SEC-SLS self-association of peptides in PBS (pH 7.5); format: physicochemical; conditions: 1 mg/ml
Description: The self-association poses a challenge to the development and manufacturing of a homogeneous therapeutic.
(§1) Solution molecular weight of the peptides was measured by SEC-SLS. Briefly, peptide solutions in PBS (pH 7.5) at 0.4 to 2.0 mg/mL were fractionated over a Superdex peptide column (Amersham Pharmacia). The eluted peaks were monitored by static light scattering at 690 nm and solution molecular weight was determined at UV 280 nm using the Astra software package (Wyatt Inc.).

[2] = CD spectra secondary structure of peptides; format: physicochemical; conditions: 0.2 mg/mL in PBS, 25° C.
Description: The secondary structures of tested peptides were determined using 0.2 mg/mL peptide solutions in PBS. Briefly, CD spectra were collected in triplicate at 1 nm intervals at 25° C. in 0.1 cm path length cell. Secondary structures were determined by fitting of the CD spectra using CD spectra software (CD Spectra Deconvolution software 2.1). All tested peptides contained peaks corresponding to the presence of alpha helices.

[3] = Helical propensity analysis using TFE (CD at 222 nm); format: physicochemical; conditions: 0.2 mg/mL in PBS (pH 7.5), MRE at 222 nm
Description: In addition, trifluoroethanol (TFE) is known to induce helix formation in peptides (Soennichsen et al., Biochemistry 31: 8791 (1992)). Accordingly, helical propensity analysis using TFE was performed. Briefly, tested peptides were diluted to 0.2 mg/mL in PBS (pH 7.5) containing 0, 1, 5, 15, 33 or 50% TFE. CD spectra were collected and CD plots were generated after data averaging, buffer subtraction and curve smoothing. Helical propensity values were obtained from mean residue ellipticity (MRE) at 222 nm versus % TFE plots. The concentration of TFE that effected a 50% transformation of the CD spectrum at 222 nm was used as a measure of helical propensity.

mice = experiment: Upper gastrointestinal transit, carmine dye technique, normal mice; format: in vivo; conditions: 50 μg/mouse daily s.c. 10 days, 20-minute test period, vs PBS vehicle, FIG. 3
Description: To test the effects of A2G-GLP-2 on upper gastrointestinal transit in normal mice, mice were randomly assigned to 2 groups (14 animals per test group). Each group received daily subcutaneous injection (total volume […]) of either A2G-GLP-2 peptide (50 μg/mouse) or the phosphate-buffered saline vehicle for 10 consecutive days.
On the day of study, upper gastrointestinal transit was measured using the carmine dye technique. Mice were fed a test meal of 0.25 ml of a 6% (w/v) solution of carmine cochineal powder mixed into 0.5% (w/v) methylcellulose administered intragastrically by an 18 gauge curved feeding tube. Following oral test meal administration, mice were replaced into their home cages. Twenty minutes after marker meal administration, mice were rapidly euthanized by cervical dislocation and the entire gastrointestinal tract was excised starting from the distal colon and working towards the gastric pylorus. […] The linear distance traversed by the carmine dye front through the small intestine was measured together with the total length of the small bowel. Upper gastrointestinal transit was expressed as the percentage of the entire small intestine traversed by the carmine dye front during the 20-minute test period: % small intestine traveled =[distance traversed by dye front through small intestine (cm)/entire small intestine length (cm)×100].

[4] = background statement; cited from earlier work
mutated human GLP-2R = biological target: T1, mutated human GLP-2R (Homo sapiens, UniProt O95838, E512D/G511A/L513V); experiment: cAMP expression assay in HEK 293E clonal cell line expressing mutated human GLP-2R; format: cell-based; conditions: Table 2; mimetibodies with Pro substitution; read-out: EC50
T1 construct: expressed in transfected cells; host or cells: HEK 293E clonal cell line
T1 sequence (O95838 1-553 G511A/E512D/L513V): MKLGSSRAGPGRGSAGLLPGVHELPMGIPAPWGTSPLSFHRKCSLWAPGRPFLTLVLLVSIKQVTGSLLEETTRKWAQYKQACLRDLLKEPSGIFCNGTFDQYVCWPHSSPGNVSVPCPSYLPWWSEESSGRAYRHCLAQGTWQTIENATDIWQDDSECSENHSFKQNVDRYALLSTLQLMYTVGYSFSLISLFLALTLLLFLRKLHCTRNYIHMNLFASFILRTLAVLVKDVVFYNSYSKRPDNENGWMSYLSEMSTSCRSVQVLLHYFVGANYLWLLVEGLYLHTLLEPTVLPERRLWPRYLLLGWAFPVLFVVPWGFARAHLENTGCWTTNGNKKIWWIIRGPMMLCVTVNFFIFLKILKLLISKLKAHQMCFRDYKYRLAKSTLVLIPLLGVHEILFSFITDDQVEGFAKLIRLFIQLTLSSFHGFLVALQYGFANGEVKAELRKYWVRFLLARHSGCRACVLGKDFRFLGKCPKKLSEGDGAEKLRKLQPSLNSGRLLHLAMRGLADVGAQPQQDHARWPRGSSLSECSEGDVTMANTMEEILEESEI
Source text: To achieve this goal, a clonal cell line expressing a mutated human GLP-2R was generated by transfecting HEK 293E cells. The mutated human GLP-2R differs from the wild-type human GLP-2R (SEQ ID NO: 35) at three amino acid positions within the C-terminal intracellular region (SEQ ID NO: 36).
The cAMP expression was quantitated using the cAMP Direct Screen System (Cat. No. CSD 200, Applied Biosystems, Bedford, Mass.).
This assay was based on the cAMP Direct Screen System from Applied Biosystems utilizing a cell line expressing mutated huGLP-2R in HEK 293E cells. Peptide at concentrations ranging from 0.01 nM to 1.0 uM in PBS with 0.5% BSA was added to ˜50,000 cells suspended in 96-well plates. After a 30-minute incubation at 37° C., Lysis Buffer followed by luminescence reagents (Applied Biosystems) was added according to the manufacturers' procedures (Applied Biosystems Luminescence protocol: cAMP-Screen Direct System). Luminescence was quantitated using a TopCount liquid scintillation analyzer (PerkinElmer), and data was processed using Softmax software (Molecular Devices Corporation).

[5] = Incubation with U937 cell lysate, SDS-PAGE (proteolysis resistance); format: in vitro ADME; conditions: 0, 12, 24 hours; in comparison with A2G GLP-2 mimetibody (SEQ ID NO: 5); FIG. 1
Description: The purified Pro substitution variants were incubated with U937 cell lysate in the presence of CompleteMini protease inhibitor tablets (Cat. No. 1 836 153, Roche Applied Science, Indianapolis, Ind.) for 0, 12, or 24 hours. Afterwards, GLP-2 mimetibody variants were purified using Protein A beads and resolved on a SDS-PAGE gel.

[6] = biological target: the molecule itself; experiment: SEC-SLS, self-association at 1 mg/ml in PBS pH 7.5
Description: as §1

[7] = SEC-SLS analysis of mimetibodies (monomer/dimer); format: physicochemical; conditions: purified from HEK 293E/HEK 293 expression

## CC[C@H](C)[C@H](NC(=O)[C@H](Cc1ccccc1)NC(=O)[C@H](CC(=O)O)NC(=O)[C@H](CCCNC(=N)N)NC(=O)[C@H](C)NC(=O)[C@H](C)NC(=O)[C@H](CC(C)C)NC(=O)[C@H](CC(N)=O)NC(=O)[C@H](CC(=O)O)NC(=O)[C@H](CC(C)C)NC(=O)[C@@H](NC(=O)[C@@H](NC(=O)[C@H](CC(N)=O)NC(=O)[C@H](CCSC)NC(=O)[C@H](CCC(=O)O)NC(=O)[C@H](CC(=O)O)NC(=O)[C@H](CO)NC(=O)[C@H](Cc1ccccc1)NC(=O)[C@H](CO)NC(=O)CNC(=O)[C@H](CC(=O)O)NC(=O)CNC(=O)[C@@H](N)Cc1c[nH]cn1)[C@@H](C)O)[C@@H](C)CC)C(=O)N[C@@H](CC(N)=O)C(=O)N[C@@H](Cc1c[nH]c2ccccc12)C(=O)N[C@@H](CC(C)C)C(=O)N[C@H](C(=O)N[C@@H](CCC(N)=O)C(=O)N[C@H](C(=O)N[C@@H](CCCCN)C(=O)N[C@H](C(=O)N[C@H](C(=O)N[C@@H](CC(=O)O)C(=O)O)[C@@H](C)O)[C@@H](C)CC)[C@@H](C)O)[C@@H](C)CC [SEQ ID NO: 3]
CD1 mice
  increase in mucosal wet weight: statistically significant increase
[1]
  SEC-SLS elution / self-association state: overlapping dimer and monomer peaks
[2]
  Helix (percentage of helical structure): 20.7%
  Random coil (percentage): 37.1%
[3]
  TFE required for helical transformation (helical propensity): ~16 % TFE
mice; listed as A2G-GLP-2
  upper gastrointestinal transit (% small intestine traveled by carmine dye front): acceleration of upper gastrointestinal transit
mice; listed as A2G-GLP-2 peptide
  upper gastrointestinal transit (% small intestine traveled by carmine dye front): significant acceleration of intestinal transit

## CC[C@H](C)[C@H](NC(=O)[C@H](Cc1ccccc1)NC(=O)[C@H](CC(=O)O)NC(=O)[C@H](CCCNC(=N)N)NC(=O)[C@H](C)NC(=O)[C@H](C)NC(=O)[C@H](CC(C)C)NC(=O)[C@H](CC(N)=O)NC(=O)[C@H](CC(=O)O)NC(=O)[C@H](CC(C)C)NC(=O)[C@@H](NC(=O)[C@@H](NC(=O)[C@H](CC(N)=O)NC(=O)[C@H](CCSC)NC(=O)[C@H](CCC(=O)O)NC(=O)[C@H](CC(=O)O)NC(=O)[C@H](CO)NC(=O)[C@H](Cc1ccccc1)NC(=O)[C@H](CO)NC(=O)CNC(=O)[C@H](CC(=O)O)NC(=O)CNC(=O)[C@@H](N)Cc1c[nH]cn1)[C@@H](C)O)[C@@H](C)CC)C(=O)N[C@@H](CC(N)=O)C(=O)N[C@@H](Cc1c[nH]c2ccccc12)C(=O)N[C@@H](CC(C)C)C(=O)N[C@H](C(=O)N[C@@H](CCC(N)=O)C(=O)N[C@H](C(=O)N[C@@H](CCCCN)C(=O)N[C@H](C(=O)N[C@H](C(=O)N[C@@H](CC(=O)O)C(=O)O)[C@@H](C)O)[C@@H](C)CC)[C@@H](C)O)[C@@H](C)CC [teduglutide]
[4]
  half-life: less than 30 minutes

## SEQ ID NO: 43: GLP-2 mimetibody Pro substitution variant; core HGDGSFSDEMNTILDNLAARDFINWLIQTKITDGSGGGSGALVAVPSESKYGPPCPPCP (Mimetibody)
Mutated human GLP-2R
  EC50: 4.8 nM
[5]
  degradation after incubation with U937 cell lysate: less degradation

## SEQ ID NO: 44: GLP-2 mimetibody Pro substitution variant; core HGDGSFSDEMNTILDNLAARDFINWLIQTKITDGSGGGSGALVAVSPESKYGPPCPPCP (Mimetibody)
Mutated human GLP-2R
  EC50: 7.7 nM
[5]
  degradation after incubation with U937 cell lysate: less degradation

B1: A2G GLP-2 peptide (peptide)
peptide: HGDGSFSDEMNTILDNLAARDFINWLIQTKITD
notes: Analog of human GLP-2 with Ala2 changed to Gly; also called A2G peptide; GLP-2(A2G)
[6]
  binding result: binds

B2: SEQ ID NO: 4: A2S GLP-2 mimetibody, IgG4 Hg-CH2-CH3 with S228P and P234A/L235A (protein)
chain: HSDGSFSDEMNTILDNLAARDFINWLIQTKITDGSGGGSGTLVTVSSESKYGPPCPPCPAPEAAGGPSVFLFPPKPDTLMISRTPEVTCVVVDVSQEDPEVQFNWYVDGVEVHNAKTKPREEQFNSTYRVVSVLTVLHQDWLNGKEYKCKVSNKGLPSSIEKTISKAKGQPREPQVYTLPPSQEEMTKNQVSLTCLVKGFYPSDIAVEWESNGQPENNYKTTPPVLDSDGSFFLYSRLTVDKSRWQEGNVFSCSVMHEALHNHYTQKSLSLSLGK
modifications: Mimetibody
[7]
  SEC-SLS association state of mimetibody: dimer
